Experiments:
[1] = tested on: human leukemia cells (HL-60, KG-1, THP-1, U937, Jurkat and K562 cells); assay: MTT assay, all tested leukemia cells (summary statements); conditions: all tested leukemia cells, MTT, compared with Az, GD and imatinib
Experimental: To assess anti-leukemia activity of Az, several human leukemia cells (HL-60 cells, acute myeloid leukemia; Jurkat cells, acute T-lymphocytic leukemia; KG-1 cells, acute myeloid leukemia; U937 cells, acute myeloid leukemia; THP-1 cells, acute monocytic leukemia; K562 cells, chronic myeloid leukemia) were incubated with Az for 48 h. […] An MTT assay was then performed to measure cell viabilities.
Cells were exposed to each compound (a HCl salt form) at various concentrations for indicated time periods (24 or 48 h) in culture media. MTT assays were conducted according to known procedures. The absorbance at 570 nm was determined by employing a microplate reader (TECAN, Infinite® 200 PRO).

[2] = tested on: U937 cells; assay: MTT assay, cell viability of U937 cells; assay type: cell-based; conditions: Homo sapiens, U-937, 48 h, mean ± s.d., n = 3, read-out: IC50 values of compounds for leukemia cells
[3] = tested on: K562 cells; assay: MTT assay, cell viability of K562 cells; assay type: cell-based; conditions: Homo sapiens, 48 h, mean ± s.d., n = 3, read-out: IC50 values of compounds for leukemia cells
[4] = tested on: THP-1 cells; assay: MTT assay, cell viability of THP-1 cells; assay type: cell-based; conditions: Homo sapiens, 48 h, mean ± s.d., n = 3, read-out: IC50 values of compounds for leukemia cells
[5] = tested on: HL-60 cells; assay: MTT assay, cell viability of HL-60 cells; assay type: cell-based; conditions: Homo sapiens, 48 h, mean ± s.d., n = 3, read-out: IC50 values of compounds for leukemia cells
[6] = tested on: KG-1 cells; assay: MTT assay, cell viability of KG-1 cells; assay type: cell-based; conditions: Homo sapiens, 48 h, mean ± s.d., n = 3, read-out: IC50 values of compounds for leukemia cells
[7] = tested on: Jurkat cells; assay: MTT assay, cell viability of Jurkat cells; assay type: cell-based; conditions: Homo sapiens, 48 h, mean ± s.d., n = 3, read-out: IC50 values of compounds for leukemia cells
[8] = tested on: HL-60 and K562 cells; assay: Flow cytometry, fluorescein-annexin V and PI staining; assay type: cell-based, human; conditions: 24 h; 10 µM Az, 10 µM GD or 4 µM Az-O3-GD
Experimental: To determine whether Az promotes leukemia cell death via apoptosis, acute leukemia HL-60 and chronic leukemia K562 cells were independently incubated with Az. The treated cells were then exposed to a mixed solution of fluorescein-annexin V and propidium iodide (PI) and flow cytometry analysis was conducted. […] The size of the treated cells was also assessed by using flow cytometry. […] We also investigated if the mitochondrial membrane potential in cells treated with Az is disrupted. To test this possibility, HL-60 and K562 cells were exposed to Az and subsequently stained with a membrane potential sensitive JC-1 probe. […] This serves as another evidence for apoptosis induced by Az.
HL-60 and K562 cells were incubated with each compound for 24 h in culture media. Cells were re-suspended with 500 μL binding buffer (10 mM HEPES, […] and 2.5 mM CaCl2, pH 7.5) and then incubated with the FITC-annexin V apoptosis detection kit with PI according to the protocol provided by the manufacturer. Flow cytometry was carried out by using a BD FACSVerse™ instrument (BD Biosciences) and the data were analyzed by using a FlowJo™ software (BD Biosciences).

[9] = target: T1, human recombinant Abl (Homo sapiens, UniProt P00519); assay: Radiometric Abl kinase assay; assay type: biochemical; conditions: compared with imatinib
T1 construct: purchased Eurofins Pharma Discovery Services (UK Limited); host or cells: insect cells
T1 sequence (P00519 whole entry): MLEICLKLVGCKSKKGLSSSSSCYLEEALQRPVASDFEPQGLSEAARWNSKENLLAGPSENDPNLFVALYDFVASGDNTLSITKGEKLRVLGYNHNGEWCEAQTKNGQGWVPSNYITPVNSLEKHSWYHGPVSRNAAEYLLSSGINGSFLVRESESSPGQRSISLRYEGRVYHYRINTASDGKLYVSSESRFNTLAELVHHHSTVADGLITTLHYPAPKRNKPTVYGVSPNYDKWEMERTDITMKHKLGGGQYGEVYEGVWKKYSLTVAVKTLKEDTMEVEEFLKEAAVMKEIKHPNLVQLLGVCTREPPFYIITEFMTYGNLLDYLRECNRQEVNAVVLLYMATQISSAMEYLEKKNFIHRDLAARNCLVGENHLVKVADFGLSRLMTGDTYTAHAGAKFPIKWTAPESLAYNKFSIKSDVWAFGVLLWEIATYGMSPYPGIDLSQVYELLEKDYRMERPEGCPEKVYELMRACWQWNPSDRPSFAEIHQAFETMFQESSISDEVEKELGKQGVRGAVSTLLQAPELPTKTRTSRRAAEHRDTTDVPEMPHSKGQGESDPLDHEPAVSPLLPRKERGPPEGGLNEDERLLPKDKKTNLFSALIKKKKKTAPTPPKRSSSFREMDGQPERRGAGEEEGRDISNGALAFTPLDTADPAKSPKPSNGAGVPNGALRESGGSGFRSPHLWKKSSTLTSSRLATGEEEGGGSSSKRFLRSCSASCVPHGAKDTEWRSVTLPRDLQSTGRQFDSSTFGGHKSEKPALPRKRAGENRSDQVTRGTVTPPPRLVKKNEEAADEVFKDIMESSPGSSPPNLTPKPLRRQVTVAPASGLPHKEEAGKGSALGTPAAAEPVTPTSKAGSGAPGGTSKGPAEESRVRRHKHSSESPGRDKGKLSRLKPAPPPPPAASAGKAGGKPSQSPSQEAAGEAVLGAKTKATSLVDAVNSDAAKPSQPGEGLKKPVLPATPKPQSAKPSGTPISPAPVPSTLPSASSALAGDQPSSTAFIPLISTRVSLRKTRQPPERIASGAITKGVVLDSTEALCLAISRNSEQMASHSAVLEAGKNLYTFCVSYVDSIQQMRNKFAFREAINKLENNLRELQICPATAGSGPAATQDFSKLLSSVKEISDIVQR
Experimental: (§1) Inhibition by the hybrids on the ATPase activities of Hsp70 and Hsp90 was determined by using a PiColorLock assay and on the kinase activity of Abl by using a radiometric assay.
Abl kinase assays. Abl kinase assays were conducted by Eurofins Pharma Discovery Services (UK Limited). Briefly, each compound was pre-incubated with 0.25 µg/mL of human recombinant Abl (expressed in insect cells) in 20 mM MOPS containing 1 mM EDTA, 0.01% Brij-35, 5% glycerol, 0.1% β-mercaptoethanol and 1 mg/mL BSA for 15 min at 37 °C. To the enzyme mixture was added 0.2 mg/mL of poly(Glu:Tyr), 10 µM ATP and 0.25 µCi [γ^33P]ATP. After incubation for 30 min, 3% H3PO4 was added to the mixture to stop enzyme reactions. An aliquot was removed and counted to determine the amount of [^33P]poly(Glu:Tyr) formed by using a Trilux scintillation counter (Wallac Microbeta 12-detector model, Perkin Elmer).
Supplementary Figure S10. Inhibitory effect of hybrid molecules on Hsp70, Hsp90 and Abl activities. (a) ATPase activity of Hsp70 was measured by using a Pi-Colorlock assay after incubation of an ATPase domain of Hsp70 with various concentrations of indicated molecules and 10 µM ATP (mean ± s.d., n =3). (b) ATPase activity of Hsp90 was measured by using a Pi-Colorlock assay after incubation of Hsp90 with various concentrations of indicated molecules and 1 mM ATP (mean ± s.d., n = 3). […]

[10] = target: T2, ATPase domain of Hsp70 (Homo sapiens, UniProt P0DMV8); assay: PiColorLock ATPase assay, Hsp70; assay type: biochemical; conditions: 10, 20 and 40 µM compound, 10 µM ATP, compared with Az
T2 construct: mixed with 2 µg of an ATPase domain of Hsp70
T2 sequence (P0DMV8 2-386 limits assumed): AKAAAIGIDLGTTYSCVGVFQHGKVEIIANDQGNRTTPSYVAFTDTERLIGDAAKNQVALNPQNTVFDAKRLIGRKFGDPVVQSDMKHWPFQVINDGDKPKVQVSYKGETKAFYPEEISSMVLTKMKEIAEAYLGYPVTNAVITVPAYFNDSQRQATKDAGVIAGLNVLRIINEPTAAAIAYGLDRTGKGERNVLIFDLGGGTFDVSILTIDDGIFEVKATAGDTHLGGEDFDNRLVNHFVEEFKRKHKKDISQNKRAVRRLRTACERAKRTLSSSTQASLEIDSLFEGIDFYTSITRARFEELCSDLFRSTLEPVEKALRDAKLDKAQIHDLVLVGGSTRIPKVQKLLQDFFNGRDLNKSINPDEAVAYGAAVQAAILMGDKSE
Experimental: as §1
ATPase assays. ATPase assays were conducted in 20 mM Tris-HCl, 10 mM MgCl2 and 100 mM KCl buffer solution mixed with 2 µg of an ATPase domain of Hsp70. Each compound (10, 20 and 40 µM) was added to the protein solution in a 96-well plate. After the mixture was placed in the plate for 30 min at room temperature, 10 µM ATP was added to the mixture and the mixture was incubated for 3 h at 37 °C. To measure ATPase activity, 10 µl of a 1:100 mixture of PiColorLock Gold reagent (Innova Biosciences) and an accelerator was added to each well. After 5 min at room temperature, 4 µL of a stabilizer was added to the mixture and then incubated for additional 30 min before taking measurement. The absorbance at 620nm was measured by using an Infinite® 200 PRO multimode microplate reader. The same procedure was used to measure ATPase activity of Hsp90 except concentrations of protein (1 µg) and ATP (1 mM).
Supplementary Figure S10. Inhibitory effect of hybrid molecules on Hsp70, Hsp90 and Abl activities. (a) ATPase activity of Hsp70 was measured by using a Pi-Colorlock assay after incubation of an ATPase domain of Hsp70 with various concentrations of indicated molecules and 10 µM ATP (mean ± s.d., n =3). (b) ATPase activity of Hsp90 was measured by using a Pi-Colorlock assay after incubation of Hsp90 with various concentrations of indicated molecules and 1 mM ATP (mean ± s.d., n = 3). (c) Abl kinase activity was measured by using a radiometric kinase assay after incubation of Abl with a peptide substrate in the presence of various concentrations of indicated molecules and γ-^33P-ATP (mean ± s.d., n =3).

| SMILES | cytotoxicity relative to the individual inhibitors [1] | IC50 [2] | IC50 [3] | IC50 [4] | IC50 [5] | IC50 [6] | IC50 [7] | apoptosis, annexin V binding and PI uptake [8] | inhibitory activity towards Abl kinase [9] | inhibition of the ATPase activity of Hsp70 [10] |
| --- | --- | --- | --- | --- | --- | --- | --- | --- | --- | --- |
| COc1ccc(-c2nc(-c3cc(C(F)(F)F)cc(C(F)(F)F)c3)n(Cc3ccc(C(=O)NCCOCCOCCNC4=C5C[C@@H](C)C[C@H](OC)[C@H](O)[C@@H](C)/C=C(\C)[C@H](OC(N)=O)[C@@H](OC)/C=C\C=C(/C)C(=O)NC(=CC4=O)C5=O)cc3)c2-c2ccc(OC)cc2)cc1 [Az-GD] | greatly enhanced cytotoxicities | 1.12 ± 0.32 µM | 0.63 ± 0.21 µM | 0.36 ± 0.12 µM | 0.73 ± 0.22 µM | 0.91 ± 0.41 µM | 0.89 ± 0.25 µM |  |  |  |
| COC1=C2C[C@@H](C)C[C@H](OC)[C@H](O)[C@@H](C)/C=C(\C)[C@H](OC(N)=O)[C@@H](OC)/C=C\C=C(/C)C(=O)NC(=CC1=O)C2=O [GD, geldanamycin, reference compound] |  | 4.8 ± 1.22 µM | 3.7 ± 1.11 µM | 0.9 ± 0.33 µM | 2.3 ± 0.74 µM | 3.2 ± 1.21 µM | 4.8 ± 1.06 µM | induces apoptosis |  |  |
| COc1ccc(-c2nc(-c3cc(C(F)(F)F)cc(C(F)(F)F)c3)n(Cc3ccc(C(=O)NCCOCCOCCOCCOCCN4CCN(Cc5ccc(C(=O)Nc6ccc(C)c(Nc7nccc(-c8cccnc8)n7)c6)cc5)CC4)cc3)c2-c2ccc(OC)cc2)cc1 [Az-O4-Imatinib] | poorer cytotoxicity | > 10 µM | 4.5 ± 0.88 µM | > 10 µM | > 10 µM | > 10 µM | > 10 µM |  | significantly reduced inhibitory activities towards Abl kinase compared to imatinib | much weaker inhibitors of Hsp70 compared to Az |
| COc1ccc(-c2nc(-c3cc(C(F)(F)F)cc(C(F)(F)F)c3)n(Cc3ccc(C(=O)NCCOCCOCCOCCN4CCN(Cc5ccc(C(=O)Nc6ccc(C)c(Nc7nccc(-c8cccnc8)n7)c6)cc5)CC4)cc3)c2-c2ccc(OC)cc2)cc1 [Az-O3-Imatinib] | poorer cytotoxicity | > 10 µM | 4.3 ± 0.91 µM | > 10 µM | > 10 µM | > 10 µM | > 10 µM |  | significantly reduced inhibitory activities towards Abl kinase compared to imatinib | much weaker inhibitors of Hsp70 compared to Az |
| COc1ccc(-c2nc(-c3cc(C(F)(F)F)cc(C(F)(F)F)c3)n(Cc3ccc(C(=O)NCCOCCOCCNC(=O)COCCOCCOCCNC4=C5C[C@@H](C)C[C@H](OC)[C@H](O)[C@@H](C)/C=C(\C)[C@H](OC(N)=O)[C@@H](OC)/C=C\C=C(/C)C(=O)NC(=CC4=O)C5=O)cc3)c2-c2ccc(OC)cc2)cc1 [Az-amide-GD] | poorer cytotoxicity |  |  |  |  |  |  |  |  | lower inhibitory activity towards Hsp70 than Az |
